Measurements: PMC5047629, “Synthesis, Pharmacological Profile and Docking Studies of New Sulfonamides Designed as Phosphodiesterase-4 Inhibitors” (PLoS ONE, 2016)

Assays:
[1] = target: T1, PDE4A (Homo sapiens, UniProt P27815); assay: PDE4A inhibition, IMAP fluorescence polarization protocol; type: biochemical; conditions: 1 μM; mean ± SEM, 3 experiments
T1 construct: purchased MDS PHARMA
Description: (§1) The enzymatic reactions were carried at room temperature in a 96-well black plate by co-incubating 25 μL of 200 nM FAM-cAMP (R7513), 5 μL of putative inhibitory compounds and 20 μL of the PDE4 isoform dissolved in assay buffer (R7364) for 1 h. All enzymes were obtained from human recombinant sources (MDS PHARMA), whereas the other reagents were purchased from Molecular Devices. […] PDE4 inhibitors were dissolved in dimethyl sulfoxide (DMSO) at a final concentration of 0.1%.
(§2) The inhibitory activities of the new sulfonamide derivatives were evaluated for their selectivity against the four isoforms of human PDE4, i.e. PDE4A, PDE4B, PDE4C, and PDE4D, using an IMAP-FP protocol.

[2] = target: T2, PDE4B (Homo sapiens, UniProt Q07343); assay: PDE4B inhibition, IMAP fluorescence polarization protocol; type: biochemical; conditions: 1 μM, mean ± SEM, 3 experiments; for inhibition at 1 µM: read-out: PDE4B1 inhibition
T2 construct: purchased MDS PHARMA
Description: as §1, §2

[3] = target: T3, PDE4C (Homo sapiens, UniProt Q08493); assay: PDE4C inhibition, IMAP fluorescence polarization protocol; type: biochemical; conditions: 1 μM; mean ± SEM, 3 experiments
T3 construct: purchased MDS PHARMA
Description: as §1, §2

[4] = target: T4, PDE4D (Homo sapiens, UniProt Q08499); assay: PDE4D inhibition, IMAP fluorescence polarization protocol; type: biochemical; conditions: 1 μM, mean ± SEM, 3 experiments; for inhibition at 1 µM: read-out: PDE4D3 inhibition
T4 construct: purchased MDS PHARMA
Description: as §1, §2

[5] = test system: A/J mice; assay: Murine model of asthma with 4 weekly OVA provocations (days 14, 21, 28, 35), interventional treatment; type: in vivo; conditions: LASSBio-448 100 mg/Kg oral
Description: Sensitization was performed by means of a subcutaneous injection of 50 μg ovalbumin (OVA) (grade V; Sigma-Aldrich, St. Louis, MO) adsorbed to 5 mg of Al(OH)3 in 0.2 mL of sterile 0.9% NaCl (saline) at days 0 and 14. Intranasal OVA provocations (25 μg /25 μL saline) were performed at 19 and 20 days post-sensitization under isofluorane volatile anaesthesia (Cristalia, São Paulo, Brazil). Alternatively, sensitization as described above were done at days 0 and 7, while the OVA provocations were carried out at days 14, 21, 28 and 35 [39]. Negative control groups were represented by sensitized mice in which allergen was replaced by saline as a challenge. Treatments were done orally 1 h before provocations. Test compounds were dissolved in saline containing 0.2% Tween 80. All solutions were freshly prepared immediately before use. Analyses were performed 24 h after the last provocation.
Airflow and transpulmonary pressure were recorded with a Buxco pulmonary mechanics processing system (Buxco Electronics, Sharon, CT), which calculated resistance (cmH2O.s/ml) and dynamic lung compliance (mL/cmH2O) in each breath cycle. Elastance was calculated as the inverse of compliance values. Mice were anesthetized with nembutal (60 mg/kg), and the neuromuscular activity was blocked with bromide pancuronium (1 mg/kg). Animals were allowed to stabilize for 5 min and increasing concentrations of methacholine (3–27 mg/mL) were aerosolized for 5 min each. Baseline pulmonary parameters were assessed with aerosolized phosphate buffer solution (PBS).
The EPO activity present in lung tissue was determined with a colorimetric assay as described by Strath et al. (1985), with minor modifications. Briefly, the lungs were cannulated and perfused with saline/EDTA (20 mM). Then, lung samples were homogenized in buffer solution containing 0.5% HBSS (Hank´s balanced solution, pH 7.4; Sigma Chemical Co.) using a tissue homogenizer (T25 ultra-Tirrax). Samples were centrifuged at 1300 xg for 10 min at 4°C. Red blood cells were removed by hypotonic and hypertonic lysis. The suspended cells were then centrifuged again at 1300 xg for 10 min at 4°C. The pellet was then suspended in a solution of HBSS containing 0.5% of HTAB (hexadecyltrimethylamonium bromide; Sigma Chemical Co.) (pH 7.4). This suspension was subjected to heat shock for lysing the cells in three cycles freeze/thawed. At the end, the supernatants were collected, centrifuged at 12000 rpm for 15 min at 4°C and assayed spectrophotometrically for EPO determination. Fifty μl of the samples were placed, and then 50 μl of the substrate (1.5 mM o-phenylenediamine and 6.6 mM hydrogen peroxide in 0.05 mM Tris-HCl buffer, pH 8.0) was added and, after a 30 min incubation at room temperature, 50 μl of H2SO4 (4M) was added to stop the reaction. The optical density reading was performed on the SpectraMax M5 spectrophotometer (Molecular Devices) at a wavelength of 492 nm.
Right lungs tissue samples from saline- and OVA-exposed mice were homogenized in PBS containing 0.05% Triton X-100 and a protease inhibitor cocktail (Complete®, Hoffmann-La Roche Ltd, Basel, Switzerland). After centrifugation at 13000xg for 10 min and 4°C, the levels of IL-13, IL-5, IL-4 and eotaxin-2 were quantified in the supernatant, using commercially available ELISA kits (DuoSet; R&D Systems, Minneapolis, MN, USA). The results were expressed as picograms of cytokine per right lung.

[6] = test system: A/J mice; assay: Duration of xylazine/ketamine anesthesia (behavioral correlate of emesis); type: in vivo
Description: This assessment was carried out as previously reported. […] The animals were placed in dorsal position and their spontaneous return to the prone position was used as an endpoint to determine anesthesia duration.

[7] = rolipram 10 mg/Kg oral, right lung, 24 h after last challenge, vs vehicle, Fig 8

T1 sequence (P27815 1-647 isoform P27815-4): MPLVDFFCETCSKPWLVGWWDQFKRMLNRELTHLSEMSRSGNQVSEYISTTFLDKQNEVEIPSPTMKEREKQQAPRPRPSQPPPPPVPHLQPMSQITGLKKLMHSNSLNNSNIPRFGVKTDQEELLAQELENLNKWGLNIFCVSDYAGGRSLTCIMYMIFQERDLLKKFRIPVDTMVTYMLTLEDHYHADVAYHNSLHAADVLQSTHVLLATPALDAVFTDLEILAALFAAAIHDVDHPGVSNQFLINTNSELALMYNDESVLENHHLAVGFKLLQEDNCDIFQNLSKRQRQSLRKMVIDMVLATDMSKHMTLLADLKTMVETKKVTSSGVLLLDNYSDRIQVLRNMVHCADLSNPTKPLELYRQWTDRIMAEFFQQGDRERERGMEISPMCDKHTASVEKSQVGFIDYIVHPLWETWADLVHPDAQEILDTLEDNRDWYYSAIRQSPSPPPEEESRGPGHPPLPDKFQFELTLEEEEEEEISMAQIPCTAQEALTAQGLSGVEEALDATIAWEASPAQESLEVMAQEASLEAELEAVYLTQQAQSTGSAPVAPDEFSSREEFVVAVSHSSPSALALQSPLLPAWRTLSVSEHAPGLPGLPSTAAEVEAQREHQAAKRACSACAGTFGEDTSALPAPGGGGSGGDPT
T3 sequence (Q08493 whole entry): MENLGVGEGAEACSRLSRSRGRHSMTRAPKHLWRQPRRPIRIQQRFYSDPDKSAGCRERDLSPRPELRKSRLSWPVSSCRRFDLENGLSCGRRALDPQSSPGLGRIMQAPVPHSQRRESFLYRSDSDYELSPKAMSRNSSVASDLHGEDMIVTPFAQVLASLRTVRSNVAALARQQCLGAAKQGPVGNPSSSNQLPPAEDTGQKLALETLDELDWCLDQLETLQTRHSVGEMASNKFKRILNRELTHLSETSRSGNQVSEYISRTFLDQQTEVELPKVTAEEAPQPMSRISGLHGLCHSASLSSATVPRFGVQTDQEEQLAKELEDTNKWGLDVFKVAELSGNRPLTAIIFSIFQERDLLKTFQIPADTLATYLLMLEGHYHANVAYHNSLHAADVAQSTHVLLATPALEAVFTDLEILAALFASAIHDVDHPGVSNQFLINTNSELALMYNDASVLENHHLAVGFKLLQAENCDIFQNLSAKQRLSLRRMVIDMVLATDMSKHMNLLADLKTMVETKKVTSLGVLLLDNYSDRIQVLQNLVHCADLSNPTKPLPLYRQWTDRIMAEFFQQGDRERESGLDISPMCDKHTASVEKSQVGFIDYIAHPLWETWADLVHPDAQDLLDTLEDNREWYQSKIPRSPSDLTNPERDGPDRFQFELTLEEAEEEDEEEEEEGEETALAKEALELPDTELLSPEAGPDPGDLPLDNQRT
T4 sequence (Q08499 1-673 isoform Q08499-2): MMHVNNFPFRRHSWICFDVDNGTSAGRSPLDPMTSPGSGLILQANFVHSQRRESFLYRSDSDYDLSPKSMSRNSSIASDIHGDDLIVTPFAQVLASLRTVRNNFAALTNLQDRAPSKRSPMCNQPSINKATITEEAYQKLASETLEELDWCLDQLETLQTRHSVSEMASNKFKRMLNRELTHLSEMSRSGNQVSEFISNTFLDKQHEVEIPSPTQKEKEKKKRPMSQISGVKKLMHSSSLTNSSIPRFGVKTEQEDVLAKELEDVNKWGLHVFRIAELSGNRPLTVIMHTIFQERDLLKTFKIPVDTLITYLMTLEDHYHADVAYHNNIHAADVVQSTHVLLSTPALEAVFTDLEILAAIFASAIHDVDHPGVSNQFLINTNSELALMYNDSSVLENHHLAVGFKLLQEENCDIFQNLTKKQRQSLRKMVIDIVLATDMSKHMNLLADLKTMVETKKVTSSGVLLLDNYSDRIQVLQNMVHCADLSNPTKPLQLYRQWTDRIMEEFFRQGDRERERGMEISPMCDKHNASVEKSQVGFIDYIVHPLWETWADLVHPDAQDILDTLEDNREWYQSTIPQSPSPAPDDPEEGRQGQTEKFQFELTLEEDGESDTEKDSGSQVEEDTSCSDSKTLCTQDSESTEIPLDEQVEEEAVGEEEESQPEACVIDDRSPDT
T2 sequence (Q07343 whole entry): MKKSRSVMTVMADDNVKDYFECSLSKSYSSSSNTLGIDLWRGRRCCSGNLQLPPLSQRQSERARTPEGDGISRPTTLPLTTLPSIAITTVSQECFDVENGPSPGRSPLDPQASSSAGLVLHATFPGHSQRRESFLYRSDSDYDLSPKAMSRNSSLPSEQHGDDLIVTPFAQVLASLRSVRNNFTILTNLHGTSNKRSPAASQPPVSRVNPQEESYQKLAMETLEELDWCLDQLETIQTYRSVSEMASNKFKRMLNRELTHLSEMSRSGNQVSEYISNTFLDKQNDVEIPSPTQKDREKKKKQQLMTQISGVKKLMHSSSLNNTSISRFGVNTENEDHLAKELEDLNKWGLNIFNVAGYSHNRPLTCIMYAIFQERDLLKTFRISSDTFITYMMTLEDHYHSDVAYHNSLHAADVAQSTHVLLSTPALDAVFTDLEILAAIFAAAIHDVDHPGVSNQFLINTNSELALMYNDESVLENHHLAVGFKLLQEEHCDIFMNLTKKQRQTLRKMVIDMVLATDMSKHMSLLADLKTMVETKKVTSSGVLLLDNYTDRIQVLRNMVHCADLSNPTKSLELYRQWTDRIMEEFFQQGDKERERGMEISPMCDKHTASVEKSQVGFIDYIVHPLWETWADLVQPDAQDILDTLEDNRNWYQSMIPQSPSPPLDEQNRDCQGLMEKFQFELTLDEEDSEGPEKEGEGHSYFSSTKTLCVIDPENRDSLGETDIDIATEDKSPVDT

Compound | PDE4A1A inhibition [1] | PDE4B1 inhibition [2] | inhibition at 1 µM [3] [%] | PDE4D3 inhibition [4] | inhibition at 1 µM [4] [%] | melting point [°C] | further results
COc1ccc(CCN(C)S(=O)(=O)c2cc3c(cc2C)OCO3)cc1OC [6b (LASSBio-959), N-(3,4-dimethoxyphenethyl)-N-6-dimethylbenzo[d][1, 3]dioxole-5-sulfonamide] | Inactive | Inactive | 5.6 ± 1 | only a marginal activity | 42.4 ± 3.5 | 92 to 94 | 
COc1ccc(CCN(Cc2ccccc2)S(=O)(=O)c2ccccc2)cc1OC [6h (LASSBio-984), N-(3,4-dimethoxyphenethyl)-N-benzylbenzenesulfonamide] | Inactive |  | 9.8 ± 1.7 |  | 14.3 ± 5.4 | 82 to 84 | inhibition at 1 µM [2]: 5 ± 0.6%
C=CCN(CCc1ccc(OC)c(OC)c1)S(=O)(=O)c1cc2c(cc1C)OCO2 [6d (LASSBio-961), N-(3,4-dimethoxyphenethyl)-N-allyl-6-methylbenzo[d][1, 3]dioxole-5-sulfonamide] | Inactive | Inactive | 6.3 ± 4.1 | only a marginal activity | 40.4 ± 4.5 | 74 to 76 | 
COc1ccc(CCN(C)S(=O)(=O)c2ccccc2)cc1OC [6g (LASSBio-982), N-(3,4-dimethoxyphenethyl)-N-methylbenzenesulfonamide] | Inactive | Inactive | 4.1 | only a marginal activity | 37.4 ± 3.9 | 67 to 68 | 
COc1ccc(C2CNC(=O)C2)cc1OC1CCCC1 (stereo not shown) [1 (Rolipram), rolipram, reference compound] |  |  |  |  |  |  | airway hyper-reactivity to methacholine, airway resistance ([5]; rolipram 10 mg/Kg oral, Fig 7A): equally effective in inhibiting; airway hyper-reactivity to methacholine, lung elastance ([5]; rolipram 10 mg/Kg oral, Fig 7B): equally effective in inhibiting; IL-4 level in lung tissue [5, 7]: reduction in the levels; IL-5 level in lung tissue [5, 7]: reduction in the levels; IL-13 level in lung tissue [5, 7]: reduction in the levels; eotaxin-2 level in lung tissue [5, 7]: reduction in the levels; allergen-induced eosinophil accumulation in the lung tissue (eosinophil peroxidase) ([5]; rolipram 10 mg/kg oral, at third and fourth weeks of challenge, Fig 5): impair the progress; reduction of sleep time (duration of xylazine/ketamine anesthesia) ([6]; 3.5 μmol/Kg oral): 30%; reduction of sleep time (duration of xylazine/ketamine anesthesia) ([6]; 11 μmol/Kg oral): 38.5%; reduction of sleep time (duration of xylazine/ketamine anesthesia) ([6]; 36 μmol/Kg oral): 40.8%
Cc1cc2c(cc1S(=O)(=O)NCCc1ccccc1)OCO2 [5 (LASSBio-964), 6-methyl-N-phenethylbenzo[d][1, 3]dioxole-5-sulfonamide] | Inactive | Inactive | 3.9 ± 2.9 | only a marginal activity | 33.5 ± 4.5 | 88 to 89 | 
COc1ccc(CCN(C)S(C)(=O)=O)cc1OC [6k (LASSBio-1271), N-(3,4-dimethoxyphenethyl)-N-methylmethanesulfonamide] | Inactive | Inactive |  | Inactive |  | 48 to 49 | PDE4C inhibition [3]: Inactive
C=CCN(CCc1ccc(OC)c(OC)c1)S(=O)(=O)c1ccccc1 [6i (LASSBio-983), N-(3,4-dimethoxyphenethyl)-N-allylbenzenesulfonamide] | Inactive | Inactive | 9.7 ± 0.8 | only a marginal activity | 67.6 ± 2.6 | 64 to 65 | 
COc1ccc(CCNS(=O)(=O)c2ccccc2)cc1OC [6f (LASSBio-965), N-(3,4-dimethoxyphenethyl)benzenesulfonamide] | Inactive | Inactive | 9.7 ± 3.3 |  | 19.3 ± 4 | 86 to 88 | 
COc1ccc(CCNS(C)(=O)=O)cc1OC [6j (LASSBio-985), N-(3,4-dimethoxyphenethyl)methanesulfonamide] | Inactive |  | 16.3 ± 1 | only a marginal activity | 62.9 ± 3.8 | 73 to 74 | inhibition at 1 µM [2]: 12.6 ± 2.1%
COc1ccc(CCN(Cc2ccccc2)S(=O)(=O)c2cc3c(cc2C)OCO3)cc1OC [6c (LASSBio-960), N-(3,4-dimethoxyphenethyl)-N-benzyl-6-methylbenzo[d][1, 3]dioxole-5-sulfonamide] | Inactive | Inactive | 2 ± 0.8 |  | 21.6 ± 4.5 | 119 to 121 | 
COc1ccc(CCN(C2CCCC2)S(=O)(=O)c2cc3c(cc2C)OCO3)cc1OC [6e (LASSBio-962), N-(3,4-dimethoxyphenethyl)-N-cyclopentyl-6-methylbenzo[d][1, 3]dioxole-5-sulfonamide] | Inactive | Inactive | 7.6 ± 1.1 |  | 23.6 ± 2.2 |  | 
